According to BindingDB's records for doi:10.1021/jm050859x (Amgen, 2006):

Target: RNA-directed RNA polymerase (Hepacivirus hominis, UniProt Q8JXU8)
Assay: Inhibitory activity against HCV delta 21 NS5b RNA polymerase

Sequence of RNA-directed RNA polymerase (Q8JXU8 whole entry): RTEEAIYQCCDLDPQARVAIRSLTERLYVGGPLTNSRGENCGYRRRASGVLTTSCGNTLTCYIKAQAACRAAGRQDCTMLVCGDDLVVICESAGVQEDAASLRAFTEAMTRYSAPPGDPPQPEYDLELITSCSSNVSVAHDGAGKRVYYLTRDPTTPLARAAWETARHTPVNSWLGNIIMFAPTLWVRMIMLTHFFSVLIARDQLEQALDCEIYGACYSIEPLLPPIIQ

Compound `O=C1C(=Cc2ccc(-c3cc(C(F)(F)F)ccc3Cl)o2)SC(=S)N1NS(=O)(=O)c1ccccc1` [5-(5-[2-chloro-5-(trifluoromethyl)phenyl]-furan-2-methylene)-3-(benzenesulfonylamino)-4-oxo-2-thionothiazolidine] has an IC50 of 0.1 µM.

With `C=C(c1ccc(Cl)c(Cl)c1)c1sc(=S)n(NS(=O)(=O)c2ccccc2)c1O` [5-(3,4-dichlorophenyl-1-ethylene)-3-(benzenesulfonylamino)-4-oxo-2-thionothiazolidine] the IC50 was 0.6 µM.

Work on `O=C(NN1C(=O)C(=Cc2ccc(Cl)cc2)SC1=S)c1ccccc1` [5-(4-chlorobenzylidene)-3-(benzoylamino)-4-oxo-2-thionothiazolidine] yielded an IC50 of over 30 µM.

With `O=S(=O)(Nn1c(O)c(Cc2ccc(Cl)c(Cl)c2)sc1=S)c1ccccc1` [5-(3,4-dichlorobenzyl)-3-(benzenesulfonylamino)-4-oxo-2-thionothiazolidine] the IC50 was 11 µM.

For `O=C1N=C(S)SC1=Cc1ccc(Cl)cc1` [5-(4-chlorobenzylidene)-2-thioxothiazolidin-4-one], the IC50 was over 30 µM.
